Drawing on PubChem BioAssay AID624003 (Vanderbilt Specialized Chemistry Center, 2012), this text covers IC50 for 8 compounds.

Structures are written as SMILES.

Chain of Phospholipase D1 (Homo sapiens) + Phospholipase D1 (Homo sapiens) (Q13393 whole entry, looked up): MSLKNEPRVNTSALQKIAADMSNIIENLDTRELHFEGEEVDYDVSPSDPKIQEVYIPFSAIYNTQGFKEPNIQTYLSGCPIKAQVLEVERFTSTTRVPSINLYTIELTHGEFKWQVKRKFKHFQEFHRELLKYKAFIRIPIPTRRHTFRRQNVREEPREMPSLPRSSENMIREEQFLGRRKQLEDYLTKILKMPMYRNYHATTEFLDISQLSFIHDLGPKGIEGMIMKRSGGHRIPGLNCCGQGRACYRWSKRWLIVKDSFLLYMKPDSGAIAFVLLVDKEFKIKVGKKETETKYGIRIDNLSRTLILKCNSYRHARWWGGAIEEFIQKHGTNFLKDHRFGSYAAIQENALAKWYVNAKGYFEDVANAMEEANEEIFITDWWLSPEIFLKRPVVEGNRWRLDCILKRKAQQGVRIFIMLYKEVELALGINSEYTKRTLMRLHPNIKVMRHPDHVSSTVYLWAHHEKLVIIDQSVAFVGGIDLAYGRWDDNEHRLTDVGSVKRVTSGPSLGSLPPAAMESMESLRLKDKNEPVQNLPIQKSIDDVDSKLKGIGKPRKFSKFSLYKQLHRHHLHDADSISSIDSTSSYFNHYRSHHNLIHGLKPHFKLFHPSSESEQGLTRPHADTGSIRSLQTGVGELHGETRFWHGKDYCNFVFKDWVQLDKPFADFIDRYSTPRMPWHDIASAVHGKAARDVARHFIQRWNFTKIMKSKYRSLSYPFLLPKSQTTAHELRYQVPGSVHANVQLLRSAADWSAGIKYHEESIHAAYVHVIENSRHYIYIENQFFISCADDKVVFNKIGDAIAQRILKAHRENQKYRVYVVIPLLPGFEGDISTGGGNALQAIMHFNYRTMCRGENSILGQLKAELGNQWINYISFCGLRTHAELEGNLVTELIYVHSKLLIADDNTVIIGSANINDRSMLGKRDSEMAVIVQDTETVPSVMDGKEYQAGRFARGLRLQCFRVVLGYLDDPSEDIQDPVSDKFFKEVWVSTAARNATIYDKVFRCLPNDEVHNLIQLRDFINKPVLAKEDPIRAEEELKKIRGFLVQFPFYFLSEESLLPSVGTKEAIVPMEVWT
Chain of Phospholipase D1 (Homo sapiens) + Phospholipase D1 (Homo sapiens) (Q13393 whole entry, looked up): as above

This assay addresses Phospholipase D1 (Homo sapiens) + Phospholipase D1 (Homo sapiens) (UniProt Q13393+Q13393). As to the kind of experiment: cellular phospholipase D1 inhibitors, IC50 – cell-based, Lib32, assay 2A, dose response (AID 624003). The settings on record: cellular PLD1 activity assay.
For `COc1cc(C(=O)NCCN2CCC3(CC2)C(=O)NCN3c2cccc(F)c2)cc(OC)c1OC`, the IC50 is 4320 nM. To `COc1cc(C(=O)N[C@@H](C)CN2CCC3(CC2)C(=O)NCN3c2cccc(F)c2)cc(OC)c1OC` belongs 22 nM; to `C[C@@H](CN1CCC2(CC1)C(=O)NCN2c1cccc(F)c1)NC(=O)c1ccc(F)cc1`, 20 nM; to `C[C@@H](CN1CCC2(CC1)C(=O)NCN2c1cccc(F)c1)NC(=O)c1cccc([N+](=O)[O-])c1`, 122 nM. For `C[C@@H](CN1CCC2(CC1)C(=O)NCN2c1cccc(F)c1)NC(=O)c1cccc(F)c1` the value was 73 nM. To `O=C(NCCN1CCC2(CC1)C(=O)NCN2c1cccc(F)c1)c1ccc(Br)cc1` belongs 1540 nM; to `C[C@@H](CN1CCC2(CC1)C(=O)NCN2c1cccc(F)c1)NC(=O)c1ccc(F)c(F)c1`, 86 nM; to `C[C@@H](CN1CCC2(CC1)C(=O)NCN2c1cccc(F)c1)NC(=O)c1ccc(F)cc1F`, 136 nM.
